The source of these data is patent US9207243B2, “Use of GLUT4 inhibitors and DNA damaging agents for treating multiple myeloma” (Northwestern University, priority 2011, dated 2015).

The conditions of data set [1]: cited from earlier work.
The test system of another data set is MM.1S cells. The data set is described as follows: Glucose consumption of MM.1S cells treated with 8-NH2-Ado. The following applies: 3 μM 8-NH2-Ado, within the first five hours of treatment. The data set is classed as cell-based, human. On the procedure: (§1) (A) Measurement of glucose consumed by MM.1S cells treated with 3 μM 8-NH2-Ado for 5 hours. Data are means±SEM (n=3). (B) MM.1S cells were treated for the indicated number of hours with 3 μM 8-NH2-Ado or not (C) prior to lysis and immunoblot analysis of GLUT1 and GLUT4 expression. (C) Immunostaining of GLUT1 and GLUT4 in MM.1S cells treated with 3 μM 8 NH2-Ado for 5 hours. Arrow indicates intracellular aggregation of GLUT4.
Our laboratory has worked extensively on defining the mechanism of action of purine analogues 8-amino-adenosine (8-NH2-Ado) and 8-chloro-adenosine (Gandhi, Ayres et al. 2001; Krett, Davies et al. 2004; Ghias, Ma et al. 2005). In our recent publication (Shanmugam, McBrayer et al. 2009) we report that 8-NH2-Ado targets cellular metabolism by inducing a rapid decline in glucose consumption, the magnitude of which correlates with toxicity in various myeloma cell lines.
To explore mechanisms underlying the decrease in glucose consumption elicited by 8-NH2-Ado in the MM.1S cell line, we examined the regulation of glucose transporters that regulate the primary rate limiting step in glycolysis (Rodriguez-Enriquez, Marin-Hernandez et al. 2009). […] Since the activity of these proteins depends upon insertion into the plasma membrane, we next evaluated subcellular distribution by immunofluorescence confocal microscopy (FIG. 1C). […]

The subject of data set [2] is GLUT4. The data set is described as follows: Immunostaining / confocal microscopy of GLUT4 subcellular localization in MM.1S cells. It counts as cell-based, human. Particulars: 3 μM 8-NH2-Ado, 5 hours, aggregation of GLUT4 within the trans-golgi network. The procedure: as §1
To explore mechanisms underlying the decrease in glucose consumption elicited by 8-NH2-Ado in the MM.1S cell line, we examined the regulation of glucose transporters that regulate the primary rate limiting step in glycolysis (Rodriguez-Enriquez, Marin-Hernandez et al. 2009). We examined expression and subcellular localization of GLUT1 and GLUT4, two highly expressed glucose transporters in B lymphocytes. Despite a 40% decline in glucose consumption rates within the first five hours of treatment (FIG. 1A), no substantial changes in GLUT1 or GLUT4 expression levels are observed at this time (FIG. 1B). The expression of both GLUT1 and 4 are diminished by 24 hours, potentially contributing to the further decline in glucose transport rates seen between 5 and 17 hours. Since the activity of these proteins depends upon insertion into the plasma membrane, we next evaluated subcellular distribution by immunofluorescence confocal microscopy (FIG. 1C). […]

The test system of a further data set is U266 myeloma cells. The data set is described as follows: Doxorubicin cell death in U266 cells in 11 or 0.5 mM glucose medium (flow cytometry, DAPI staining). It counts as cell-based, human. Particulars: 0.5 mM vs 11 mM glucose medium, 48 hours. On the procedure:
(A) Primary normal B lymphocytes and CD138+ cells isolated from an MM patient and L363 cells were cultured in medium containing 0 or 5 mM glucose for 48 (NBL, L363) or 72 (MM Patient) hours. Cell viability was determined by flow cytometric analysis of AnnexinV/DAPI staining and normalized to 5 mM samples. Data are means±SEM (n=2). (B) Indicated cells were cultured as in (A) with various concentrations of glucose for 72 hours. Viable cell quantities were determined by MTS assay and normalized to 5 mM samples. Data are means±SEM. (C) U266 myeloma cells were cultured in 11 or 0.5 mM glucose-containing medium for 48 hours in the presence of the indicated concentrations of doxorubicin. Cell death was determined by flow cytometric analysis of DAPI staining. Data are means±SEM. *p<0.05 **p<0.01.
Glucose Deprivation Attenuates Proliferation, Viability and Chemoresistance of Myeloma Cells. To independently ascertain the contribution of glucose in maintaining myeloma cell proliferation and survival we cultured L363 myeloma cells, normal B lymphocytes (NBL), and primary MM cells in medium containing either a physiological glucose concentration (5 mM) or medium devoid of glucose and assessed the impact on cellular viability (FIG. 2 A). Under these conditions, greater than 95% of L363 cells and 50% of the primary MM cells undergo apoptosis while the viability of normal cells is not impacted. […]
A general note: A flow cytometer gives signals particle by particle.

Data set [3] concerns the target T1, GLUT4 (Rattus norvegicus, UniProt P19357).
T1 construct: host or cells: primary rat adipocytes
T1 sequence (P19357 1-509): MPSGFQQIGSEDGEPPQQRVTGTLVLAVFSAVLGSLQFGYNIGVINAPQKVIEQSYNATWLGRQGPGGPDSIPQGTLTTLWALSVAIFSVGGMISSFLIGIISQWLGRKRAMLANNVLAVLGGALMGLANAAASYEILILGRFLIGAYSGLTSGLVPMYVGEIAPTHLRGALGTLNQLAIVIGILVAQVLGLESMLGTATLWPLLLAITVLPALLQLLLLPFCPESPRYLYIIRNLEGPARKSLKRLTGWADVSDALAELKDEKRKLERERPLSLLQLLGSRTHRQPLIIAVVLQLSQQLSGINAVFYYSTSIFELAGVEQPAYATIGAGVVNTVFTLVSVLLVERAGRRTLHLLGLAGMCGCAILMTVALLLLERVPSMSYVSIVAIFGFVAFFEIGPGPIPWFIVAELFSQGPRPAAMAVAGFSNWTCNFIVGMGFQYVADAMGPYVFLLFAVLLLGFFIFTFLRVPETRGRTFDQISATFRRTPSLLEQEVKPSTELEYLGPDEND
The following applies: primary rat adipocytes (Murata, Hruz et al.); read-out: Ki, reversible non-competitive GLUT4 inhibition; cited from earlier work.

The conditions of data set [4]: epirubicin plus lonidamine vs epirubicin alone; did not reach statistical significance; cited from earlier work.
Data set [5] concerns L363 cells. The data set is described as follows: Glucose consumption rate with ritonavir, L363. It counts as cell-based, human. The following applies: L363, 5 mM glucose medium, 17 hours. On the procedure: (§2) (A) KMS11 and (B) L363 cells were plated in 5 mM glucose medium with ritonavir or DMSO (D) for 17 hours. Glucose consumption rates are normalized to untreated cells (not shown). (C) KMS11 and (D) L363 cells were treated with ritonavir or DMSO for 12 hours. Relative viable cell numbers were determined by MTS assay and normalized to untreated cells (not shown). (E) KMS11 and (F) L363 cells were treated with 20 μM ritonavir with or without 0.075 (KMS11) and 0.025 μM (L363) doxorubicin or the combination for 72 hrs and cellular viability assessed by AnnexinV/DAPI staining. (G) Stable KMS11 cell lines were generated expressing empty vector or GLUT1 and GLUT1 levels were assessed by immunoblot. Representative blot is shown. N.S. indicates non-specific band. (H) Stable cell lines from part G were treated with DMSO or ritonavir (Rit) for 5 hours and glucose consumption was assessed. (1) Cell proliferation was measured in the stable cell lines described in part G treated with ritonavir (Rit) or DMSO for 72 hours. A representative experiment is shown. (J) Cell proliferation rates from multiple experiments represented by part G are normalized to DMSO-treated cells. (K) Primary myeloma cells were treated with DMSO or ritonavir for 72 hours before AnnexinV/DAPI staining. Values are normalized to DMSO-treated samples (n=1 for each patient sample). Data are means±SEM with n≧3. *P<0.05 **P<0.01 ***P<0.005.

Data set [6] deals with KMS11 stable cell lines expressing GLUT1. The data set is described as follows: Glucose consumption in stable KMS11 cell lines expressing GLUT1 or control, treated with ritonavir. It counts as cell-based, human. The following applies: KMS11 stable line expressing GLUT1, 5 hours. On the procedure:
as §2

In data set [7] the test system is KMS11 cells. The data set is described as follows: Ritonavir with or without doxorubicin, viability by AnnexinV/DAPI staining, KMS11. The data set is classed as cell-based, human. Particulars: KMS11, 20 μM ritonavir with 0.075 μM doxorubicin, 72 hrs. The procedure:
as §2

A further data set has as its system primary myeloma cells. The data set is described as follows: Cytotoxicity of ritonavir towards primary myeloma cells (AnnexinV/DAPI staining). It counts as cell-based, human. Particulars: 20 μM ritonavir, 72 hours. On the procedure: as §2
Data set [8] relates to KMS11 cells. The data set is described as follows: Relative viable cell number by MTS assay with ritonavir, KMS11. It counts as cell-based, human. On the procedure: as §2
In data set [9] the test system is KMS11 stable cell lines expressing GLUT1. The data set is described as follows: Cell proliferation in stable KMS11 cell lines expressing GLUT1 or control, treated with ritonavir. It counts as cell-based, human. Particulars: KMS11 stable line expressing GLUT1, 72 hours. On the procedure: as §2
The conditions of data set [10]: humans (Hsu, Granneman et al. 1997); cited from earlier work.
Data set [11] has as its system L363 cells. The data set is described as follows: Ritonavir with or without doxorubicin, viability by AnnexinV/DAPI staining, L363. The following applies: L363, 20 μM ritonavir with 0.025 μM doxorubicin, 72 hrs. The data set is classed as cell-based, human. On the procedure:
as §2

Data set [12] concerns KMS11 cells. The data set is described as follows: Glucose consumption rate with ritonavir, KMS11. Particulars: KMS11, 5 mM glucose medium, 17 hours. It counts as cell-based, human. The procedure: as §2
For data set [13], the system named is L363 cells. The data set is described as follows: Relative viable cell number by MTS assay with ritonavir, L363. The data set is classed as cell-based, human. On the procedure:
as §2
(In general: Tetrazolium assays rely on reduction of a dye to a coloured formazan, in cell work by metabolically active cells.)

Where [14] appears, read: 2DG and docetaxel, evaluable pool of 18 patients.

As for `O=CC[C@@H](O)[C@H](O)[C@H](O)CO` [2DG], in data set [1] (2DG and docetaxel phase I trial), the “adverse event noted in multiple patients” value is on record as “Grade 3 hyperglycemia”. Besides, in data set [1] (setting [14]), the “cases of disease stabilization” value is reported as “six” and the partial response entry is “one”.

With `Nc1ncnc2c1nc(N)n2[C@@H]1O[C@H](CO)[C@@H](O)[C@H]1O` [8-NH2-Ado, 8-amino-adenosine], in the data set on MM.1S cells, the “decline in glucose consumption rates” value is 40%. Further, in the data set with GLUT4 [2], the “basal cell surface localization of GLUT4” value was “reduces this basal cell surface localization of GLUT4”.

Turning to `COc1cccc2c1C(=O)c1c(O)c3c(c(O)c1C2=O)C[C@@](O)(C(=O)CO)C[C@@H]3O[C@H]1C[C@H](N)[C@H](O)[C@H](C)O1` [doxorubicin], the “sensitivity to doxorubicin under glucose-limiting conditions” value in the data set with U266 myeloma cells is recorded as “significantly greater sensitivity”.

For the molecule `CC(C)(C)NC(=O)[C@@H]1CN(Cc2cccnc2)CCN1C[C@@H](O)C[C@@H](Cc1ccccc1)C(=O)N[C@H]1c2ccccc2C[C@H]1O` [indinavir], the Ki (in general, a dissociation constant, usually derived from enzyme kinetics or from competition with a known ligand) on GLUT4 [3] was 15 µM.

In the case of `O=C(O)c1nn(Cc2ccc(Cl)cc2Cl)c2ccccc12` [lonidamine], the “increase in overall response rate” value in [4] was 9%.

`CC(C)c1nc(CN(C)C(=O)N[C@H](C(=O)N[C@@H](Cc2ccccc2)C[C@H](O)[C@H](Cc2ccccc2)NC(=O)OCc2cncs2)C(C)C)cs1` [ritonavir]: the “glucose transport (glucose consumption rate)” value in the data set on L363 cells [5] and with KMS11 cells [12] was “dose-dependent abrogation” each time. Moreover, the “effect of GLUT1 expression on ritonavir-induced glucose transport inhibition” value in data set [6] is recorded as “completely mitigated”. For the same molecule, the sensitization to doxorubicin entry in the data set on KMS11 cells [7] and in the data set on L363 cells [11] was “recapitulates the doxorubicin-sensitizing effects of glucose limitation” throughout. The “cell death induction in patient samples” value with primary myeloma cells is given as “a range of cell death induction”. The “proliferation (relative viable cell numbers, MTS)” value in the data set with KMS11 cells [8] and in the data set on L363 cells [13] was “dose-dependent abrogation” throughout. In addition, the “effect of GLUT1 expression on response to prolonged ritonavir treatment (proliferation)” value in data set [9] was “robust resistance”. The “peak plasma level routinely achieved in humans” value in data set [10] was approximately 20 µM.
